Experimental findings from article PMC3460372 (Organic letters, 2012) are described below.

The assay deals with BmAsnRS (Brugia malayi asparaginyl-tRNA synthetase) (Brugia malayi, UniProt P10723). Briefly: nonradioactive pretransfer editing assay, malachite green phosphate detection. The format is biochemical.

Each structure is given as a SMILES string. Numbered stars: 1 amine (or outer) side, 2 acyl side, 3 side chain; on linkers, the order of the positions; unused ones are H or OH. Square brackets hold non-standard residues; d marks the D form. Peptide text beside a SMILES is read from it. * marks the point of attachment. Cinnamoyl(2-(1Z-pentenyl)) = CCC/C=C\c1ccccc1/C=C/C(=O)*; X1 = CN(/C(=C/c1ccc(O)cc1)C(=O)[*:2])[*:1]; aThr = C[C@H](O)[C@H](N)C(=O)O

Sequence of BmAsnRS (Brugia malayi asparaginyl-tRNA synthetase) (P10723 whole entry): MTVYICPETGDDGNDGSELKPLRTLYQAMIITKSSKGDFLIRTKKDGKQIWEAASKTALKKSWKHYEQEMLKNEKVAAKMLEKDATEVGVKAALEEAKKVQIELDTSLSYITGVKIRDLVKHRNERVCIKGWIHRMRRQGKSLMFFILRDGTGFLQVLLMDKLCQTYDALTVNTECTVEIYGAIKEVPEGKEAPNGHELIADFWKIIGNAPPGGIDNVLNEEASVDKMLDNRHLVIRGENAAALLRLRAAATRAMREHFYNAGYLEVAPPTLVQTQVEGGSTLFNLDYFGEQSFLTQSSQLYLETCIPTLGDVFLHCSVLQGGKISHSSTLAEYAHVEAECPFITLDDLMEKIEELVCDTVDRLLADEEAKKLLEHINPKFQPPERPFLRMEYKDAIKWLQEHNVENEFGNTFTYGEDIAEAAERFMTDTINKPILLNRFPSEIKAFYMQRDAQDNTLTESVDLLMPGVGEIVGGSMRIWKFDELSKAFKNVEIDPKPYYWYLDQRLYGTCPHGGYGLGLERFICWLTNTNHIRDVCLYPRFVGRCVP

For `CCC/C=C\c1ccccc1/C=C/C(=O)N[C@@H](CO)C(=O)N(C)/C(=C/c1ccc(O)cc1)C(=O)N[C@@H](CC(C)C)C(=O)N[C@H](Cc1ccccc1)C(=O)N[C@H](C(=O)O)[C@H](C)O` [compound 4, WS9326E] ({Cinnamoyl(2-(1Z-pentenyl))}-S[X1]L[dF][aThr]-OH), the half-maximal inhibitory concentration (IC50) (commonly the concentration that gives 50% inhibition) was around 75 µM.
Under `CCC/C=C\c1ccccc1/C=C/C(=O)N[C@H](C(=O)N(C)/C(=C/c1ccc(O)cc1)C(=O)N[C@@H](CC(C)C)C(=O)N[C@H](Cc1ccccc1)C(=O)N[C@H](C(=O)O)[C@H](C)O)[C@@H](C)O` [compound 3, WS9326D] ({Cinnamoyl(2-(1Z-pentenyl))}-T[X1]L[dF][aThr]-OH) stands around 50 µM.
